US11180487B2, “Substituted cyanoindoline derivatives as NIK inhibitors” (Janssen Pharmaceutica NV, priority 2016, dated 2021)
Like-named read-outs stand apart in the source and are kept apart here.

Legend:
[1] = biological target: recombinant human NF-kappaB-inducing kinase (NIK/MAP3K14) (Homo sapiens, UniProt Q99558); test: Inhibition of auto-phosphorylation of recombinant human NIK/MAP3K14 activity (AlphaScreen), Biological Assay A; assay type: biochemical; conditions: averaged values over all measurements on all batches
How it was run: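 GST-tagged enzyme (0.2 nM) incubated with compound and 25 μM ATP in 50 mM Tris pH 7.5, 5 mM MgCl2, 1 mM EGTA, 1 mM DTT, 0.1 mM Na3VO4, 1% DMSO, 1 h at 25 °C. Stopped with anti-phospho-IKK Ser176/180 antibody; AlphaScreen bead read, blank-subtracted, IC50 from sigmoidal fit.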

[2] = tested on: P-IKKα levels in L363 (NIK translocated multiple myeloma) cells; test: Effect of compounds on P-IKKα levels in L363 cells (Mesoscale sandwich immuno-assay), Biological Assay B; assay type: cell-based, human; conditions: 2 hr treatment, averaged values, read-out: Inhibition of pIKKα_L-363 (IC50 (nM))
Protocol: Effect of Compounds on P-IKKα Levels in L363 (NIK Translocated Multiple Myeloma) Cells
All compounds tested were dissolved in DMSO and further dilutions were made in culture medium. Final DMSO concentration was 1% (v/v) in cell assays. The human L363 cells (ATCC) were cultured in RPMI 1640 medium supplemented with GlutaMax and 10% fetal calf serum (PAA). Cells were routinely maintained at densities of 0.2×10^6 cells per ml-1×10^6 cells per ml at 37° C. in a humidified 5% CO2 atmosphere. Cells were passaged twice a week splitting back to obtain the low density. Cells were seeded in 96 well plates (Nunc 167008) at 2×10^6 per ml media in a volume of 75 μl per well plus 25 μl 1 μg/ml recombinant human B-cell activating factor (BAFF/BLyS/TNFSF13B). Seeded cells were incubated at 37° C. in a humidified 5% CO2 atmosphere for 24 hr. Drugs and/or solvents were added (20 μl) to a final volume of 120 μl. Following 2 hr treatment plates were removed from the incubator and cell lysis was achieved by the addition of 30 μl 5× lysis buffer followed by shaking on a plate shaker at 4° C. for 10 min. At the end of this incubation lysed cells were centrifuged at 800×g for 20 min at 4° C. and the lysate was assessed for P-IKKα levels by sandwich immuno-assay carried out in anti-rabbit antibody coated Mesoscale plates. Within an experiment, the results for each treatment were the mean of 2 replicate wells. For initial screening purposes, compounds were tested using an 8 point dilution curve (serial 1:3 dilutions). For each experiment, controls (containing MG132 and BAFF but no test drug) and a blank incubation (containing MG132 and BAFF and 10 μM ADS125117, a test concentration known to give full inhibition) were run in parallel. The blank incubation value was subtracted from all control and sample values. To determine the IC50 a sigmoidal curve was fitted to the plot of % inhibition of control P-IKKα levels versus Log10 compound concentration.
Note: Compounds 237 and 238 were tested at a maximum top concentration of 823 nM.

[3] = tested on: JJN-3 (NIK translocated) multiple myeloma cells; test: Antiproliferative activity on JJN-3 multiple myeloma cells (CellTiter-Glo, 96 hr), Biological Assay C; assay type: cell-based, human; conditions: JJN-3 (NIK translocated) cells, averaged values, read-out: JJN-3 Proliferation inhibition (IC50 (nM))
How it was run: (§1)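 JJN-3 and KMS12-BM cells in RPMI 1640 with 10% FCS were plated at 15000–20000 cells/well and treated 96 h with a 9-point 1:3 dilution series (0.3% DMSO). Viability read by CellTiter-Glo luminescence, blank (time-zero cells) subtracted, expressed as % of untreated control; duplicate wells.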

[4] = tested on: KMS12-BM (NIK WT) multiple myeloma cells; test: Antiproliferative activity on KMS12-BM multiple myeloma cells (CellTiter-Glo, 96 hr), Biological Assay C; assay type: cell-based, human; conditions: averaged values, read-out: KMS-12 Proliferation inhibition (IC50 (nM))
How it was run: as §1

Chain of recombinant human NF-kappaB-inducing kinase (NIK/MAP3K14) (Q99558 whole entry): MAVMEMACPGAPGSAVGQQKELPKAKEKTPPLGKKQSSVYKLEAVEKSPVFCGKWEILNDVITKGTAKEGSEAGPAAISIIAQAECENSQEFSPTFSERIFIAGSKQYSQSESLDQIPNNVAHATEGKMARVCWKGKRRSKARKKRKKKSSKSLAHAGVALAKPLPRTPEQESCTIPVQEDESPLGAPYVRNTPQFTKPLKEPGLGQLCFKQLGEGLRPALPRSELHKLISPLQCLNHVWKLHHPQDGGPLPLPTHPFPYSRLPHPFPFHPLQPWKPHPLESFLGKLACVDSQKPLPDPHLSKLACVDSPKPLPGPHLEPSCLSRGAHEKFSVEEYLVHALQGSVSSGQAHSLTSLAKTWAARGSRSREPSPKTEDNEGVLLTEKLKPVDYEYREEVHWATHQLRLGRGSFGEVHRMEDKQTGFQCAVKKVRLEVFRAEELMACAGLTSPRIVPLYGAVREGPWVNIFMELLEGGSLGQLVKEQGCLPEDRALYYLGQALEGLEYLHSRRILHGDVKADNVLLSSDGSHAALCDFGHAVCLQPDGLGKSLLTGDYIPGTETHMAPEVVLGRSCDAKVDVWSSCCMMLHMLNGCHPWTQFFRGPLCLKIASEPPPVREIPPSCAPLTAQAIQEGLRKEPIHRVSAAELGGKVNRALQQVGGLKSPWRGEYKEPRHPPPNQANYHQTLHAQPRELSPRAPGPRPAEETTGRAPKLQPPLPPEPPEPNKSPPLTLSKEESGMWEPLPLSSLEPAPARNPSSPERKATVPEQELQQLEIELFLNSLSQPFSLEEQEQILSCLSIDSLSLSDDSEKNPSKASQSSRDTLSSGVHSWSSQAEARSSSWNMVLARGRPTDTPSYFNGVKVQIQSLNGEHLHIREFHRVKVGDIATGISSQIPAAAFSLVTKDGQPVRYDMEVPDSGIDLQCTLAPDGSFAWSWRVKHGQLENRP

IC50 [1] | IC50 ([2]; Homo sapiens, L-363, 2 h) | IC50 ([3]; Homo sapiens, JJN-3, 96 h) | IC50 ([4]; Homo sapiens, KMS-12-BM, 96 h) | melting point | IC50 [2] | IC50 [3] | IC50 [4] | SMILES
5 nM | 13.2 nM | 66 nM | ~9550 nM | 268 °C | – | – | – | Cc1c(Nc2nccc(-c3cc(C#N)c4c(c3)[C@@](C)(CO)CN4)n2)cccc1C(=O)N1CCN(C2COC2)CC1 [Compound 207]
6 nM | 11.2 nM | 162 nM | > 10000 nM | 201 °C | – | – | – | [2H]C1([2H])OC([2H])([2H])C([2H])([2H])N(C(=O)c2cccc(Nc3nccc(-c4cc(C#N)c5c(c4)[C@@](C)(CO)CN5)n3)c2C)C1([2H])[2H] [Compound 205]
6.5 nM | 12.3 nM | 200 nM | > 10000 nM | > 270 °C | – | – | – | Cc1ccc(C#N)cc1Nc1nccc(-c2cc(C#N)c3c(c2)[C@@](C)(COS(=O)(=O)O)CN3)n1 [Compound 143]
9.2 nM | 30.9 nM | 146 nM | > 10000 nM | 194 °C | – | – | – | C[C@]1(CO)CNc2c(C#N)cc(-c3ccnc(Nc4cc(C#N)ccc4OCC4CC4)n3)cc21 [Compound 13]
17 nM | – | – | – | 214 °C | ~58.9 nM | 977 nM | > 10000 nM | Cc1ccc(C#N)cc1Nc1nccc(-c2cc(C#N)c3c(c2)[C@@](C)(COC(=O)CC(=O)O)CN3)n1 [Compound 142b]
0.7 nM | – | – | – | 262 °C | 3 nM | 170 nM | 4360 nM | Cc1ccc(C#N)cc1Nc1nccc(-c2cc(C#N)c3c(c2)[C@@](C)(CO)CN3)n1 [Compound 133]
72.4 nM | 2950 nM | 1180 nM | 537 nM | 250 °C | – | – | – | Cc1ccc(C2CCN(C)CC2)cc1Nc1nccc(-c2cc(C#N)c3c(c2)[C@@](C)(CO)CN3)n1 [Compound 192]
1.1 nM | 6.8 nM | 56 nM | 479 nM | 148 °C | – | – | – | Cc1cc(S(C)(=O)=O)ccc1Nc1nccc(-c2cc(C#N)c3c(c2)[C@@](C)(CO)CN3)n1 [Compound 17]
14.1 nM | 83.2 nM | 3240 nM | > 10000 nM | 238 °C | – | – | – | C[C@]1(CO)CNc2c(C#N)cc(-c3ccnc(Nc4cc(C#N)ccc4CN4CCOCC4)n3)cc21 [Compound 224]
13.8 nM | 3.6 nM | 182 nM | ~6920 nM | 213 °C | – | – | – | CC(=O)OC[C@@]1(C)CNc2c(C#N)cc(-c3ccnc(Nc4cc(C#N)ccc4C)n3)cc21 [Compound 125]
7.8 nM | 1 nM | 14 nM | > 10000 nM | 240 °C | – | – | – | Cc1c(CN2CC(F)(F)C2)cc(C#N)cc1Nc1nccc(-c2cc(C#N)c3c(c2)[C@@](C)(CO)CN3)n1 [Compound 196]
9.8 nM | 107 nM | 4270 nM | ~7940 nM | 151 °C | – | – | – | COCCNCc1ccc(C)c(Nc2nccc(-c3cc(C#N)c4c(c3)[C@@](C)(CO)CN4)n2)c1 [Compound 217]
1.8 nM | – | – | – | 222 °C | 2.2 nM | 85 nM | 5190 nM | Cc1ccc(C#N)cc1Nc1nccc(-c2cc(C#N)c3c(c2)[C@@](C)(CO)CN3)n1 [Compound 1]
1 nM | 2.3 nM | 81 nM | ~4680 nM | 207 °C | – | – | – | Cc1cc(CCCN)c(C#N)cc1Nc1nccc(-c2cc(C#N)c3c(c2)[C@@](C)(CO)CN3)n1 [Compound 170]
5.5 nM | 20.4 nM | 4790 nM | > 10000 nM | 140 °C | – | – | – | Cc1ccc(C(=O)NCCN2CCOCC2)cc1Nc1nccc(-c2cc(C#N)c3c(c2)[C@@](C)(CO)CN3)n1 [Compound 159]
10.2 nM | 72.4 nM | 4570 nM | > 10000 nM | 140 °C | – | – | – | Cc1ccc(CN2CC(F)C2)cc1Nc1nccc(-c2cc(C#N)c3c(c2)[C@@](C)(CO)CN3)n1 [Compound 220]

IC50 [1] | IC50 ([2]; Homo sapiens, L-363, 2 h) | IC50 ([3]; Homo sapiens, JJN-3, 96 h) | IC50 ([4]; Homo sapiens, KMS-12-BM, 96 h) | melting point | IC50 [2] | IC50 [3] | IC50 [4] | SMILES
3 nM | 5.9 nM | 251 nM | 19 nM | 165 °C | – | – | – | COCCOc1ccc(C#N)cc1Nc1nccc(-c2cc(C#N)c3c(c2)[C@@](C)(CO)CN3)n1 [Compound 66]
11 nM | 3.8 nM | 39 nM | > 3980 nM | > 260 °C | – | – | – | COc1cc(C(=O)NC2CCOCC2)c(Cl)cc1Nc1nccc(-c2cc(C#N)c3c(c2)C(C)(C)CN3)n1 [Compound 108]
8.9 nM | 18.6 nM | 955 nM | > 10000 nM | 116 °C | – | – | – | Cc1cc(F)c(C(=O)NC2CCN(C)C2)cc1Nc1nccc(-c2cc(C#N)c3c(c2)[C@@](C)(CO)CN3)n1 (single isomer, unassigned) [Compound 166]
3.9 nM | 60.3 nM | 457 nM | 2690 nM | 133 °C | – | – | – | Cc1ccc(OCCNC2CC2)c(Nc2nccc(-c3cc(C#N)c4c(c3)[C@@](C)(CO)CN4)n2)c1 [Compound 235]
4.8 nM | 7.8 nM | 251 nM | > 10000 nM | 206 °C | – | – | – | CNC(=O)c1cc(Nc2nccc(-c3cc(C#N)c4c(c3)[C@@](C)(CO)CN4)n2)c(OC2CC2)cc1F [Compound 156]
1.1 nM | 34.7 nM | 955 nM | > 10000 nM | 249 °C | – | – | – | Cc1cc(C#CCN)c(C#N)cc1Nc1nccc(-c2cc(C#N)c3c(c2)[C@@](C)(CO)CN3)n1 [Compound 171]
15.5 nM | 5500 nM | – | – | 181 °C | – | – | – | Cc1ccc(CN2CC(F)(F)C2)cc1Nc1nccc(-c2cc(C#N)c3c(c2)[C@@](C)(CO)CN3)n1 [Compound 219]
6.5 nM | 6.6 nM | – | – | 156 °C | – | – | – | CC(=O)NCCCCc1ccc(C#N)cc1Nc1nccc(-c2cc(C#N)c3c(c2)[C@@](C)(CO)CN3)n1 [Compound 185]
3.5 nM | 5.9 nM | 20 nM | – | 192 °C | – | – | – | Cc1ccc(OC2CCN(C)CC2)c(Nc2nccc(-c3cc(C#N)c4c(c3)[C@@](C)(CO)CN4)n2)c1 [Compound 234]
34.7 nM | 2630 nM | – | – | 128 °C | – | – | – | Cc1ccc(-c2ccnn2C)cc1Nc1nccc(-c2cc(C#N)c3c(c2)[C@@](C)(CO)CN3)n1 [Compound 190]
49 nM | 144 nM | – | – | 108 °C | – | – | – | Cc1ccc(CN2CCCC2)cc1Nc1nccc(-c2cc(C#N)c3c(c2)[C@@](C)(CO)CN3)n1 [Compound 216]
3.6 nM | ~1230 nM | – | – | 115 °C | – | – | – | Cc1ccc(CNC2CC2)cc1Nc1nccc(-c2cc(C#N)c3c(c2)[C@@](C)(CO)CN3)n1 [Compound 218]
447 nM | > 10000 nM | – | – | 148 °C | – | – | – | C[C@]1(CO)CNc2c(C#N)cc(-c3ccnc(Nc4cc(P(C)(C)=O)ccc4OCC4CC4)n3)cc21 [Compound 6]
13.8 nM | 355 nM | – | – | 116 °C | – | – | – | CNCc1ccc(C)c(Nc2nccc(-c3cc(C#N)c4c(c3)[C@@](C)(CO)CN4)n2)c1 [Compound 239]
58.9 nM | 4370 nM | – | – | 166 °C | – | – | – | Cc1ccc(C#N)cc1Nc1nccc(-c2cc(C#N)c3c(c2)[C@@](C)(C(C)(C)O)CN3)n1 [Compound 135]
